From ChEMBL document CHEMBL3217640, “Labile natural products” (Medchemcomm, 2012)

Legend:
Mus musculus = assay: Toxicity in po dosed mouse; assay type: organism-based; conditions: in vivo
Rattus norvegicus = assay: Antiinflammatory activity in Wistar rat assessed as inhibition of heat-killed Mycobacterium butyricum-induced paw swelling at 10 mg/kg, po administered on day 10 to 15 measured everyday of compound dosing by plethysmometer relative to control; assay type: functional; conditions: 240 h

Structure (SMILES)	LD100 (Mus musculus)	inhibition in vivo at 10 mg/kg (Rattus norvegicus)
O=C(O)C1C=C1	2.5 mg/kg	
CCCCCc1oc(CCCCCCCCCCC(=O)OCC)c(C)c1C		74%
